Patent publication US5807985A, “Oligopeptide compounds containing D-2-alkyltryptophan capable of promoting the release of growth hormone” (priority 1997, dated 1998)
Like-named read-outs stand apart in the source and are kept apart here. Peptide text beside a SMILES is read from it.

Tests used:
Human heart tissue = assay: Inhibition of 125I-Tyr-Ala-HEXARELIN binding to human heart tissue membranes; settings: for percent of inhibition of 125I-Tyr-Ala-HEXARELIN specifically bound / specific binding of 125I-Tyr-Ala-HEXARELIN/0.1 mg membrane protein: heart; for IC50: human heart tissue
Description: (§1) The peptides of Examples 3 and 6 were further studied for inhibition of ^125 I--Tyr--Ala--HEXARELIN binding to human tissue. HEXARELIN is His--D--Mrp--Ala--Trp--D--Phe--Lys--NH2 where Mrp is 2-methyltryptophan.
(§2) Tissue membranes (0.1 mg protein) obtained from the heart and hypothalamus of two different adult subjects were incubated in triplicate with a subsaturating concentration (34 pM, about 48,000 cpm, for heart tissue and 42 pM, about 60,000 cpm, for hypothalamus tissue) of ^125 I--Tyr--Ala--HEXARELIN for 40 min at 0° C. in the absence and in the presence of increasing concentrations of the indicated unlabelled peptides. The value in parentheses represents the percent of inhibition of ^125 1I--Tyr--Ala--HEXARELIN specifically bound.
(§3) The specific binding of ^125 I--Tyr--Ala--HEXARELIN/0.1 mg membrane protein is expressed as a percent of total radioactivity added.

[1] = target: Human hypothalamus tissue; assay: Inhibition of 125I-Tyr-Ala-HEXARELIN binding to human hypothalamus tissue membranes; settings: for IC50: human hypothalamus tissue; for percent of inhibition of 125I-Tyr-Ala-HEXARELIN specifically bound / specific binding of 125I-Tyr-Ala-HEXARELIN/0.1 mg membrane protein: hypothalamus
Description: as §1, §2, §3

[2] = mean of subjects 1 and 2, read-out: mean IC50 value
[3] = subject 1, read-out: IC50 value
[4] = subject 2, read-out: IC50 value

Cc1[nH]c2ccccc2c1C[C@@H](NC(=O)[C@@H](N)Cc1cnc[nH]1)C(=O)N[C@@H](C)C(=O)N[C@@H](Cc1c[nH]c2ccccc12)C(=O)N[C@H](Cc1ccccc1)C(=O)N[C@@H](CCCCN)C(N)=O [HEXARELIN, His--D--Mrp--Ala--Trp--D--Phe--Lys--NH2] (HELM PEPTIDE1{H.[Cc1[nH]c2ccccc2c1C[C@@H](N[*:1])C(=O)[*:2]].A.W.[dF].K.[am]}$$$$V2.0)
percent of inhibition of 125I-Tyr-Ala-HEXARELIN specifically bound (Human heart tissue; 0.1 nM peptide, subject 1): 4%
specific binding of 125I-Tyr-Ala-HEXARELIN/0.1 mg membrane protein (Human heart tissue; 0.1 nM peptide, subject 1): 20.1% of total radioactivity
percent of inhibition of 125I-Tyr-Ala-HEXARELIN specifically bound (Human heart tissue; 0.1 nM peptide, subject 2): 5%
specific binding of 125I-Tyr-Ala-HEXARELIN/0.1 mg membrane protein (Human heart tissue; 0.1 nM peptide, subject 2): 22.8% of total radioactivity
percent of inhibition of 125I-Tyr-Ala-HEXARELIN specifically bound (Human heart tissue; 1 nM peptide, subject 1): 20%
specific binding of 125I-Tyr-Ala-HEXARELIN/0.1 mg membrane protein (Human heart tissue; 1 nM peptide, subject 1): 16.9% of total radioactivity
percent of inhibition of 125I-Tyr-Ala-HEXARELIN specifically bound (Human heart tissue; 1 nM peptide, subject 2): 28%
specific binding of 125I-Tyr-Ala-HEXARELIN/0.1 mg membrane protein (Human heart tissue; 1 nM peptide, subject 2): 17.3% of total radioactivity
percent of inhibition of 125I-Tyr-Ala-HEXARELIN specifically bound (Human heart tissue; 10 nM peptide, subject 1): 51%
specific binding of 125I-Tyr-Ala-HEXARELIN/0.1 mg membrane protein (Human heart tissue; 10 nM peptide, subject 1): 10.4% of total radioactivity
percent of inhibition of 125I-Tyr-Ala-HEXARELIN specifically bound (Human heart tissue; 10 nM peptide, subject 2): 56%
specific binding of 125I-Tyr-Ala-HEXARELIN/0.1 mg membrane protein (Human heart tissue; 10 nM peptide, subject 2): 10.5% of total radioactivity
percent of inhibition of 125I-Tyr-Ala-HEXARELIN specifically bound (Human heart tissue; 100 nM peptide, subject 1): 92%
specific binding of 125I-Tyr-Ala-HEXARELIN/0.1 mg membrane protein (Human heart tissue; 100 nM peptide, subject 1): 1.7% of total radioactivity
percent of inhibition of 125I-Tyr-Ala-HEXARELIN specifically bound (Human heart tissue; 100 nM peptide, subject 2): 90%
specific binding of 125I-Tyr-Ala-HEXARELIN/0.1 mg membrane protein (Human heart tissue; 100 nM peptide, subject 2): 2.4% of total radioactivity
percent of inhibition of 125I-Tyr-Ala-HEXARELIN specifically bound (Human heart tissue; 1000 nM peptide, subject 1): 100%
specific binding of 125I-Tyr-Ala-HEXARELIN/0.1 mg membrane protein (Human heart tissue; 1000 nM peptide, subject 1): 0% of total radioactivity
percent of inhibition of 125I-Tyr-Ala-HEXARELIN specifically bound (Human heart tissue; 1000 nM peptide, subject 2): 100%
specific binding of 125I-Tyr-Ala-HEXARELIN/0.1 mg membrane protein (Human heart tissue; 1000 nM peptide, subject 2): 0% of total radioactivity
IC50 (Human heart tissue; [2]): 9.5 nM
IC50 (Human heart tissue; [3]): 10.6 nM
IC50 (Human heart tissue; [4]): 8.3 nM
IC50 [1, 2]: 7 nM
IC50 [1, 3]: 8.9 nM
IC50 [1, 4]: 5 nM
percent of inhibition of 125I-Tyr-Ala-HEXARELIN specifically bound ([1]; 0.1 nM peptide, subject 1): 3%
specific binding of 125I-Tyr-Ala-HEXARELIN/0.1 mg membrane protein ([1]; 0.1 nM peptide, subject 1): 10.7% of total radioactivity
percent of inhibition of 125I-Tyr-Ala-HEXARELIN specifically bound ([1]; 0.1 nM peptide, subject 2): 4%
specific binding of 125I-Tyr-Ala-HEXARELIN/0.1 mg membrane protein ([1]; 0.1 nM peptide, subject 2): 9.1% of total radioactivity
percent of inhibition of 125I-Tyr-Ala-HEXARELIN specifically bound ([1]; 1 nM peptide, subject 1): 16%
specific binding of 125I-Tyr-Ala-HEXARELIN/0.1 mg membrane protein ([1]; 1 nM peptide, subject 1): 9.6% of total radioactivity
percent of inhibition of 125I-Tyr-Ala-HEXARELIN specifically bound ([1]; 1 nM peptide, subject 2): 19%
specific binding of 125I-Tyr-Ala-HEXARELIN/0.1 mg membrane protein ([1]; 1 nM peptide, subject 2): 7.7% of total radioactivity
percent of inhibition of 125I-Tyr-Ala-HEXARELIN specifically bound ([1]; 10 nM peptide, subject 1): 51%
specific binding of 125I-Tyr-Ala-HEXARELIN/0.1 mg membrane protein ([1]; 10 nM peptide, subject 1): 5.2% of total radioactivity
percent of inhibition of 125I-Tyr-Ala-HEXARELIN specifically bound ([1]; 10 nM peptide, subject 2): 67%
specific binding of 125I-Tyr-Ala-HEXARELIN/0.1 mg membrane protein ([1]; 10 nM peptide, subject 2): 3.1% of total radioactivity
percent of inhibition of 125I-Tyr-Ala-HEXARELIN specifically bound ([1]; 100 nM peptide, subject 1): 89%
specific binding of 125I-Tyr-Ala-HEXARELIN/0.1 mg membrane protein ([1]; 100 nM peptide, subject 1): 1.2% of total radioactivity
percent of inhibition of 125I-Tyr-Ala-HEXARELIN specifically bound ([1]; 100 nM peptide, subject 2): 93%
specific binding of 125I-Tyr-Ala-HEXARELIN/0.1 mg membrane protein ([1]; 100 nM peptide, subject 2): 0.7% of total radioactivity
percent of inhibition of 125I-Tyr-Ala-HEXARELIN specifically bound ([1]; 1000 nM peptide, subject 1): 100%
specific binding of 125I-Tyr-Ala-HEXARELIN/0.1 mg membrane protein ([1]; 1000 nM peptide, subject 1): 0% of total radioactivity
percent of inhibition of 125I-Tyr-Ala-HEXARELIN specifically bound ([1]; 1000 nM peptide, subject 2): 100%
specific binding of 125I-Tyr-Ala-HEXARELIN/0.1 mg membrane protein ([1]; 1000 nM peptide, subject 2): 0% of total radioactivity
